Data from patent US9522198B2, “Methods and compositions related to targeting tumors and wounds” (Sanford-Burnham Medical Research Institute, priority 2006, dated 2016).
“Also recorded” adds a separate entry of the source. Ends that are not written are not given here.

Tested on: orthotopic MDA-MB-435 xenograft tumors
Assay: Tumor homing of i.v. injected fluorescein-conjugated peptides, MDA-MB-435 xenografts
Format: in vivo, mouse
From the text: To determine whether the CLT peptides would recognize clotted plasma proteins in vivo, the peptides were synthesized as fluorescein conjugates and imaged their accumulation in tumors. Mice bearing orthotopic MDA-MB-435 xenograft tumors were intravenously injected with fluorescein-conjugated CLT1 (n=6), CLT2 (n=4), or a control peptide (n=4) with the sequence KAREC (SEQ ID NO: 5).
B16F1 mouse melanoma, Lewis lung carcinoma, C8161 human melanoma, MDA-MB-435 human breast cancer, and PPC-1 human prostate cancer cells (American Type Culture Collection) were maintained in RPMI or DMEM supplemented with 10% FCS. Human tumor cells (1×10^6) were injected into the mammary fat pad or the flank of nude BALB/c nu/nu mice to induce tumors. MMTV PyMT mice were provided by Dr. Robert Oshima (Burnham Institute for Medical Research, La Jolla, Calif.). The MMTV PyMT mice develop breast cancer under the influence of a polyoma middle T antigen driven by the mouse tumor virus promoter (Siegel, P. M., Ryan, E. D., Cardiff, R. D., Muller W. J. (1999) EMBO J., 18, 2149-64). B16F1 tumors induced by injecting 1×10^6 cells subcutaneously were grown in the flank of fibrinogen knock-out mice (Suh, T. T., Holmback, K., Jensen, N. J., Daugherty, C. C., Small, K., Simon, D. I., Potter, S., & Degen, J. L. (1995) Genes Dev. 9, 2020-2033), and of transgenic plasma fibronectin-deficient C57BL/6-Fn(f1/f1) Mx-Cre^+ (Sakai, T., Johnson, K. J., Murozono, M., Sakai, K., Magnuson, M. A., Wieloch, T., Cronberg, T., Isshiki, A., Erickson, H. P., & Fassler R. (2001) Nat. Med. 7, 324-30) and their wild type littermates. Deletion of the fibronectin gene in the liver was induced by poly(I):poly(C) (Yi, M., Sakai, T., Fassler, R., & Ruoslahti, E. (2003) Proc. Natl. Acad. Sci. USA. 100, 11435-11438). Frozen human tissues from clinical breast cancers were provided by the Western Division of the NCI Cooperative Human Tissue Network (Vanderbilt University Medical Center, Nashville, Tenn.).
Peptides were synthesized and conjugated to fluorescein isothiocyanate as described (Laakonen et al. PNAS 2004), and cyclized by exposure to air.
Imaging under a blue light, and examination of the distribution of fluorescein-conjugated peptides after tail vein injection have been described (Hoffman, R. M. (2005) Nature Reviews Cancer 5, 796-806; Laakkonen, P., Akerman, M. E., Biliran, H., Yang, M., Ferrer, F., Karpanen, T., Hoffman, R. M., & Ruoslahti E. (2004) Proc. Natl. Acad. Sci. USA 101, 9381-6).
The imaging methods are briefly described as follows: A Leica fluorescence stereomicroscope, model LZ12, equipped with a 50-W mercury lamp, was used for high-magnification imaging. Selective excitation of GFP was produced through a D425y60 band-pass filter and 470 DCXR dichroic mirror. Emitted fluorescence was collected through a long-pass filter GG475 (Chroma Technology, Brattleboro, Vt.) on a Hamamatsu C5810 3-chip cooled color charge-coupled device camera (Hamamatsu Photonics Systems, Bridgewater, N.J.). Images were processed for contrast and brightness and analyzed with the use of IMAGE PRO PLUS 3.1 software (Media Cybernetics, Silver Springs, Md.). Images of 1,024×724 pixels were captured directly on an IBM PC or continuously through video output on a high-resolution Sony VCR model SLV-R1000 (Sony, Tokyo). Imaging at lower magnification that visualized the entire animal was carried out in a light box illuminated by blue light fiber optics (Lightools Research, Encinitas, Calif.) and imaged by using the thermoelectrically cooled color charge-coupled device camera, as described above (Yang, M., Baranov, E., Jiang, P., Sun, F-X., Li, X-M., Li, L., Hasegawa, S., Bouvet, M., Al-Tuwaijri, M., Chishima, T., et al (2000) Proc. Natl. Acad. Sci. USA 97, 1206-11).
The mice were perfused through the heart 3 hours after the peptide injection and tissues removed for examination. […]

[1] = 500 μg fluorescein-conjugated peptide i.v., 3 h

**Q.** “CGLIIQKNEC (also: cyclic, ring type not given here, fluorescein conjugate, site not given here) [CLT1, cyclic decapeptide from phage library screened on plasma clots; tested as fluorescein conjugate]” was tested. Which “fluorescence in control / healthy organs” value [1] did it give?
**A.** not in control organs

**Q.** And the “fluorescence in tumors, whole tissues under blue light” value [1]?
**A.** intense fluorescence; also recorded: strong fluorescence

**Q.** What about the “histological distribution of peptide fluorescence within the tumor” value (fluorescein-conjugated peptide i.v., 3 h, 400×) of the same sequence?
**A.** distributed in a network pattern

**Q.** What about the “tumor homing / fluorescence on co-injection with unlabeled CLT2” value (unlabeled CLT2 in 5 fold excess) of the same sequence?
**A.** strongly reduced
